In US9469682B2, “Methods of treatment using natriuretic polypeptides” (Mayo Foundation for Medical Education and Research, priority 2006, dated 2016):

Tests used:
normal dogs = assay: Intravenous bolus of polypeptide in normal dogs (renal, haemodynamic and hormonal effects); assay type: in vivo, dog; details: 25 μg per kg IV bolus; for mean arterial blood pressure: FIG. 6; for plasma vasopressin levels: FIG. 7; for renal blood flow: FIG. 8; for vasodilatory effects: concluded from mean arterial blood pressure and renal blood flow
Description: Polypeptides with the sequences set forth in FIGS. 1-3 were designed and synthesized. The polypeptide set forth in FIG. 1 is referred to as an ABC-NP polypeptide; the polypeptide set forth in FIG. 2 is referred to as an ABC-NP1 polypeptide; and the polypeptide set forth in FIG. 3 is referred to as a BC-NP2 polypeptide. The biological effects of intravenous ABC-NP, ABC-NP1, or BC-NP2 infusion were tested in normal dogs. Briefly, five normal dogs were infused with 25 μg of ABC-NP, ABC-NP1, or BC-NP2 per kg administered as an IV bolus. Urinary sodium excretion, urine flow, mean arterial blood pressure, plasma vasopressin levels, and renal blood flow were measured as described elsewhere (Chen et al., Am. J. Physiol. Regul. Integr. Comp. Physiol., 288: R1093-R1097 (2005) and Haber et al., J. Clin. Endocrinol. Metab., 29:1349-1355 ([…])). The results were compared to results obtained from dogs treated with 25 μg of BNP per kg administered as an IV bolus.

[1] = system: human cardiac fibroblasts; assay: cGMP generation in cardiac fibroblast cells (competitive RIA); assay type: cell-based; details: 10^−11 M, 10^−8 M, or 10^−6 M for 10 minutes, FIGS. 9-11
Description: The biological effects of ABC-NP, ABC-NP1, or BC-NP2 on cardiac fibroblast cells were tested in vitro. Briefly, 80-90% confluent cardiac fibroblast cells were incubated in Hank's balanced salt solution (InVitrogen) containing 20 mmol/L N-[2-hydroxyethyl]piperazine-N′[2-ethanesulfonic acid], 0.1% bovine serum albumin, and 0.5 mmol/L 3-isobutyl-1-methylzanthine (Sigma). Treated cells received ANP (10^−6M), BNP (10^−6M), CNP (10^−6M), ABC-NP (10^−11M, 10^−8M, or 10^−6M), ABC-NP1 (10^−11 M, 10^−8 M, or 10^−6 M), or BC-NP2 (10^−11M, 10^−8 M, or 10^−6 M) for 10 minutes. Cells were lysed in 6% TCA and sonicated for 10 minutes. The samples were ether extracted four times in four volumes of ether, dried, and reconstituted in 300 μL cGMP assay buffer. The samples were assayed using a competitive RIA cGMP kit (Perkin-Elmer, Boston, Mass.). Briefly, samples and standards were incubated with 100 μL anti-human cGMP polyclonal antibody and I^125-antigen for 18 hours. cGMP assay buffer was added to the samples, and they were centrifuged for 20 minutes at 2500 rpm. The free fraction was aspirated off; the bound fraction was counted; and concentrations determined Samples were corrected for dilution factors, and values were expressed as pmoles/mL. There is no cross-reactivity with ANP, BNP, or CNP, and there is <0.001% reactivity with cAMP, GMP, GDP, ATP, and GTP.

Substance	mean arterial blood pressure (normal dogs)	plasma vasopressin levels (normal dogs)	renal blood flow (normal dogs)	prolonged aquaretic and diuretic renal actions (normal dogs; FIGS. 4 and 5)	cGMP activation [1]	aquaretic and natriuretic effects (urinary sodium excretion, urine flow) (normal dogs; FIGS. 4 and 5)	vasodilatory effects (normal dogs)	renal effects as compared to ABC-NP (normal dogs; FIGS. 4 and 5)
ABC-NP1: 33-residue polypeptide: human mature ANP residues 11-15, human mature CNP residues 1-22, human mature BNP residues 27-32 (RMDRIGLSKGCFGLKLDRIGSMSGLGCKVLRRH; combination of SEQ ID NOs1, 7, and 3)	reduction	strong trend for increasing	increase	no prolonged aquaretic and diuretic renal actions observed	activated cGMP	–	–	–
ABC-NP: 33-residue polypeptide: human ANP residues 11-15, human CNP 1-22 with positions 15-17 changed to Arg-Glu-Ala, human BNP residues 27-32 (RMDRIGLSKGCFGLKLDRIREASGLGCKVLRRH; combination of SEQ ID NOs1, 2, and 3)	no effect	did not increase	–	–	did not	resulted in aquaretic and natriuretic effects	does not have vasodilatory effects	–
BC-NP2: 28-residue polypeptide: human CNP 1-22 with positions 15-17 changed to arginine, glutamic acid, alanine, then human BNP residues 27-32 (GLSKGCFGLKLDRIREASGLGCKVLRRH; combination of SEQ ID NOs2 and 3)	did not result in a decrease	–	did not result in a decrease in mean arterial blood pressure or an increase in renal blood flow	–	did not	–	does not have vasodilatory effects	about 50%
BNP: natriuretic peptide of myocardial cell origin; main form a 32 amino acid polypeptide with a ring structure; comparator [reference compound]	–	increased	–	–	–	–	–	–
